Results reported in paper PMC10510381, “Alkyne as a Latent Warhead to Covalently Target SARS-CoV-2 Main Protease” (Journal of Medicinal Chemistry, 2023).
Several values for one entry are separate records, joined by “and”; a condition that tells them apart may be missing. Equal values may be shown once. Entries after “also recorded” stand apart in the source; their conditions may differ. Read-outs that look alike come from different tables or passages of the source. Residues, ends and D or L forms follow the SMILES beside them. *: point of attachment. Cbz = O=C(OCc1ccccc1)*

Assays:
[1] = molecular target: SARS-CoV-2 M^pro (Severe acute respiratory syndrome coronavirus 2, UniProt P0DTD1); assay: biochemical; conditions: for inhibition against M^pro: up to 80 μM
[2] = system: Hela-ACE2 cells
[3] = molecular target: recombinant M^pro (Severe acute respiratory syndrome coronavirus 2, UniProt P0DTD1); format: binding
[4] = system: SARS-CoV-2; format: cell-based
[5] = system: HEK293T proteome; assay: Proteomic labeling of parental HEK293T cells (in-gel fluorescence); format: cell-based, human
[6] = molecular target: M^pro expressed in HEK293T cells (Severe acute respiratory syndrome coronavirus 2, UniProt P0DTD1); format: cell-based; conditions: HEK293T transiently transfected with M^pro
[7] = system: HeLa proteome; format: cell-based, human
[8] = 15-min treatment of M^pro (0.5 μM), FRET substrate 20 μM, both duplicate values given, read-out: IC50
[9] = 15-min pre-incubation, read-out: IC50 (average of duplicate)

CC(C)C[C@H](NC(=O)OCc1ccccc1)C(=O)N[C@H](C#N)CCC(N)=O [Compound 1g, O=C(N[C@@H](CCC(N)=O)C#N)[C@H](CC(C)C)NC(OCC1=CC=CC=C1)=O]
IC50 [1, 8]: > 80 µM | inhibition against M^pro [1]: failed to cause significant inhibition

CC(C)(C)[C@H](NC(=O)C(F)(F)F)C(=O)N1C[C@H]2[C@@H]([C@H]1C(=O)N[C@H](C=O)C[C@@H]1CCNC1=O)C2(C)C [Compound 4e, O=C1NCC[C@H]1C[C@@H](C([H])=O)NC([C@H]2N(C([C@@H](NC(C(F)(F)F)=O)C(C)(C)C)=O)C[C@H]3[C@@H]2C3(C)C)=O]
IC50 [1, 8]: 0.29 µM and 0.3 µM

CC(C)(C)[C@H](NC(=O)C(F)(F)F)C(=O)N1C[C@H]2[C@@H]([C@H]1C(=O)N[C@H](C#N)C[C@@H]1CCNC1=O)C2(C)C [Compound 4g, nirmatrelvir, reference compound]
cytotoxicity ([2]; up to the highest concentration tested, 10 μM, 20 h): no notable cytotoxicity

C#C[C@H](CCC(N)=O)NC(=O)[C@H](CC(C)C)NC(=O)OCc1ccccc1 [Compound 1d, O=C(N[C@@H](CCC(N)=O)C#C)[C@H](CC(C)C)NC(OCC1=CC=CC=C1)=O]
IC50 [1, 8]: 35 µM and 60 µM

CC(C)(C)[C@H](NC(=O)C(F)(F)F)C(=O)N1C[C@H]2[C@@H]([C@H]1C(=O)N[C@@H](C[C@@H]1CCNC1=O)C(N)=O)C2(C)C [Compound 4h, O=C1NCC[C@H]1C[C@@H](C(N)=O)NC([C@H]2N(C([C@@H](NC(C(F)(F)F)=O)C(C)(C)C)=O)C[C@H]3[C@@H]2C3(C)C)=O]
IC50 [1, 8]: > 80 µM

CC(C)C[C@H](NC(=O)OCc1ccccc1)C(=O)N[C@H](C=O)CCC(N)=O [Compound 1e, O=C(N[C@@H](CCC(N)=O)C([H])=O)[C@H](CC(C)C)NC(OCC1=CC=CC=C1)=O] (Cbz-Leu-Gln-aldehyde)
IC50 [1, 8]: > 80 µM | inhibition against M^pro [1]: failed to cause significant inhibition

CC(C)(C)[C@H](NC(=O)C(F)(F)F)C(=O)N1C[C@H]2[C@@H]([C@H]1C(=O)N[C@H](C#CC(F)(F)F)C[C@@H]1CCNC1=O)C2(C)C [Compound 4i, O=C1NCC[C@H]1C[C@@H](C#CC(F)(F)F)NC([C@H]2N(C([C@@H](NC(C(F)(F)F)=O)C(C)(C)C)=O)C[C@H]3[C@@H]2C3(C)C)=O]
concentration sufficient to abolish labeling of M^pro ([3]; competition with 10 μM Alk-4d): 1 µM | antiviral activity [4]: strong, dose-dependent antiviral activity | anti-COVID activity ([4]; sub-micromolar concentrations, HeLa-ACE2, 24 h): significant anti-COVID activity | cytotoxicity [2]: no notable cytotoxicity

CC(C)C[C@H](NC(=O)OCc1ccccc1)C(=O)N[C@H](/C=C/C(=O)OCc1ccccc1)CCC(N)=O [Compound 1a, O=C(N[C@@H](CCC(N)=O)/C=C/C(OCC1=CC=CC=C1)=O)[C@H](CC(C)C)NC(OCC2=CC=CC=C2)=O]
IC50 [1, 8]: 2.5 µM and 3.9 µM

CC(C)C[C@H](NC(=O)OCc1ccccc1)C(=O)N[C@H](/C=C/S(C)(=O)=O)CCC(N)=O [Compound 1b, O=C(N[C@@H](CCC(N)=O)/C=C/S(C)(=O)=O)[C@H](CC(C)C)NC(OCC1=CC=CC=C1)=O]
IC50 [1, 8]: 12 µM and 18 µM

COc1cccc2[nH]c(C(=O)N[C@@H](CC(C)C)C(=O)N[C@H](C#N)CCC(N)=O)cc12 [Compound 2g, O=C(N[C@@H](CCC(N)=O)C#N)[C@H](CC(C)C)NC(C1=CC2=C(C=CC=C2OC)N1)=O]
IC50 [1, 8]: 29 µM and 30 µM

C#CC[C@H](NC(=O)C(F)(F)F)C(=O)N1C[C@H]2[C@@H]([C@H]1C(=O)N[C@H](C#CC(F)(F)F)C[C@@H]1CCNC1=O)C2(C)C [Alk-4i, O=C1NCC[C@H]1C[C@@H](C#CC(F)(F)F)NC([C@H]2N(C([C@@H](NC(C(F)(F)F)=O)CC#C)=O)C[C@H]3[C@@H]2C3(C)C)=O]
lowest concentration tested, giving intense labeling of M^pro [3]: 300 nM | incubation time to label M^pro near saturation ([3]; time-course): 5 min | proteome labeling, HEK293T cells ([5]; 5 h, 10 μM): significant labeling

CC(C)C[C@H](NC(=O)OCc1ccccc1)C(=O)N[C@@H](CCC(N)=O)C(=O)C(=O)NCc1ccccc1 [Compound 1f, O=C(N[C@@H](CCC(N)=O)C(C(NCC1=CC=CC=C1)=O)=O)[C@H](CC(C)C)NC(OCC2=CC=CC=C2)=O]
IC50 [1, 8]: > 80 µM | inhibition against M^pro [1]: failed to cause significant inhibition

C#CC[C@H](NC(=O)C(F)(F)F)C(=O)N1C[C@H]2[C@@H]([C@H]1C(=O)N[C@H](C#C)C[C@@H]1CCNC1=O)C2(C)C [Alk-4d, O=C1NCC[C@H]1C[C@@H](C#C)NC([C@H]2N(C([C@@H](NC(C(F)(F)F)=O)CC#C)=O)C[C@H]3[C@@H]2C3(C)C)=O]
probe concentration for efficient labeling of M^pro ([3]; 1 h treatment): above 1 μM | probe concentration reaching saturation of M^pro labeling ([3]; 1 h treatment): 3 µM | labeling of M^pro in live cells [6]: dose-dependent labeling | proteome labeling, HEK293T cells ([5]; 1 hour, up to 30 μM): little labeling; also recorded: did not label any proteins | proteome labeling, HEK293T cells ([5]; 5 h, all tested concentrations): little proteome labeling | proteome labeling, HeLa cells [7]: little labeling

C#C[C@H](CCC(N)=O)NC(=O)[C@H](CC(C)C)NC(=O)c1cc2c(OC)cccc2[nH]1 [Compound 2d, O=C(N[C@@H](CCC(N)=O)C#C)[C@H](CC(C)C)NC(C1=CC2=C(C=CC=C2OC)N1)=O]
IC50 ([1]; 15-min pre-incubation, both duplicate values given, read-out: IC50 uM (15-min pre-incubation)): 22 µM | IC50 [1, 8]: 22 µM

CNS(=O)(=O)/C=C/[C@H](CCC(N)=O)NC(=O)[C@H](CC(C)C)NC(=O)OCc1ccccc1 [Compound 1c, O=C(N[C@@H](CCC(N)=O)/C=C/S(=O)(NC)=O)[C@H](CC(C)C)NC(OCC1=CC=CC=C1)=O]
IC50 [1, 9]: 47 µM | IC50 [1, 8]: 39 µM and 55 µM

C#C[C@H](C[C@@H]1CCNC1=O)NC(=O)[C@H](CC(C)C)NC(=O)c1cc2c(OC)cccc2[nH]1 [Compound 3d, O=C(N[C@@H](C[C@H]1C(NCC1)=O)C#C)[C@H](CC(C)C)NC(C2=CC3=C(C=CC=C3OC)N2)=O]
IC50 [1, 9]: ~7 µM | IC50 [1, 8]: 10 µM and 4.4 µM
